# Experiments:
# Experiment in all cases: In vitro antibacterial evaluation: minimum inhibitory concentration (MIC), broth dilution method
# Format in all cases: cell-based
# Staphylococcus sp. = system: Staphylococcus sp.
# Outline: (§1)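 Inoculum: 5×10^5 CFU/mL. Range: 64-0.06 μg/mL. Medium: Muller-Hinton II […]; NCCLS M7-A2 broth dilution. Endpoint: lowest concentration inhibiting growth. Strains include methicillin-, penicillin- and/or vancomycin-resistant clinical isolates.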
# Streptococcus sp. = conditions: 18 hours at 35° C.
# Outline: as §1
# Enterococcus sp. = conditions: 18 hours at 35° C.
# Outline: as §1
# Escherichia coli = conditions: 18 hours at 35° C.
# Outline: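 MIC read as lowest drug level preventing visible growth. Organisms at 5×10^5 CFU/mL were exposed to a 64-0.06 μg/mL dilution series in Muller-Hinton II […] following NCCLS broth dilution standard M7-A2.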
# [1] = broth dilution, inoculum 5×10^5 CFU/mL
structure (smiles),measurement,setting,value
"CC(c1ccccc1)C1NC(=O)CNC(=O)C(CO)NC(=O)C(C(O)C2CNC(=N)N2C2OC(CO)C(O)C(O)C2O)NC(=O)C(C(O)C2CNC(=N)N2)NC(=O)C(Cc2ccc(OC3OC(CO)C(OC4OC5COC6(OC5C(O)C4O)C(C)CCCC6C)C(O)C3O)cc2)NC1=O (stereo not drawn) [Example 206, Cyclo[glycyl-β-methylphenylalanyl-O-[4-O-[4,6-O-(2,6-dimethylcyclohexylidene)hexopyranosyl]hexopyranosyl]tyrosyl-3-(2-iminoimidazolidin-4-yl)seryl-3-(3-hexopyranosyl-2-iminoimidazolidin-4-yl)serylseryl]]",MIC Staphylococcus aureus (ATCC 29213),Staphylococcus sp.; strain ATCC 29213,1 µg/mL
same,MIC Staphylococcus aureus (GC 1131),Staphylococcus sp.; strain GC 1131,1 µg/mL
same,MIC Staphylococcus aureus (GC 3051),Staphylococcus sp.; strain GC 3051,1 µg/mL
same,MIC Staphylococcus aureus (GC 3053),Staphylococcus sp.; strain GC 3053,1 µg/mL
same,MIC Staphylococcus aureus (GC 4541),Staphylococcus sp.; strain GC 4541,1 µg/mL
same,MIC Staphylococcus aureus (GC 4542),Staphylococcus sp.; strain GC 4542,1 µg/mL
same,MIC Staphylococcus aureus-SMITH (GC 4543),Staphylococcus sp.; strain GC 4543,1 µg/mL
same,MIC Staphylococcus aureus (GC 4544),Staphylococcus sp.; strain GC 4544,1 µg/mL
same,MIC Staphylococcus aureus (GC 4545),Staphylococcus sp.; strain GC 4545,1 µg/mL
same,MIC Staphylococcus haemolyticus (GC 4546),Staphylococcus sp.; strain GC 4546,0.5 µg/mL
same,MIC Coagulase Negative Staphylococcus (GC 4547),Staphylococcus sp.; strain GC 4547,1 µg/mL
same,MIC Coagulase Negative Staphylococcus (GC 4548),Staphylococcus sp.; strain GC 4548,0.5 µg/mL
same,MIC Coagulase Negative Staphylococcus (GC 4549),Staphylococcus sp.; strain GC 4549,0.5 µg/mL
same,MIC Coagulase Negative Staphylococcus (GC 4551),Staphylococcus sp.; strain GC 4551,1 µg/mL
same,MIC Streptococcus agalactiae (GC 4564),Streptococcus sp.; Streptococcus agalactiae (GC 4564),0.25 µg/mL
same,MIC Streptococcus pneumoniae (ATCC 6301),Streptococcus sp.; Streptococcus pneumoniae (ATCC 6301),<0.12 µg/mL
same,MIC Streptococcus pneumoniae (GC 1894),Streptococcus sp.; Streptococcus pneumoniae (GC 1894),<0.12 µg/mL
same,MIC Streptococcus pneumoniae (GC 4565),Streptococcus sp.; Streptococcus pneumoniae (GC 4565),<0.12 µg/mL
same,MIC Streptococcus pyogenes (GC 4563),Streptococcus sp.; Streptococcus pyogenes (GC 4563),1 µg/mL
same,MIC Streptococcus agalactiae (GC 4564),Streptococcus sp.; [1],0.25 µg/mL
same,MIC Streptococcus pneumoniae (ATCC 6301),Streptococcus sp.; [1],<0.12 µg/mL
same,MIC Streptococcus pneumoniae (GC 1894),Streptococcus sp.; [1],<0.12 µg/mL
same,MIC Streptococcus pneumoniae (GC 4565),Streptococcus sp.; [1],<0.12 µg/mL
same,MIC Streptococcus pyogenes (GC 4563),Streptococcus sp.; [1],1 µg/mL
same,MIC Enterococcus avium (GC 4558),Enterococcus sp.; Enterococcus avium (GC 4558),2 µg/mL
same,MIC Enterococcus faecalis (ATCC 29212),Enterococcus sp.; Enterococcus faecalis (ATCC 29212),1 µg/mL
same,MIC Enterococcus faecalis (GC 2242),Enterococcus sp.; Enterococcus faecalis (GC 2242),2 µg/mL
same,MIC Enterococcus faecalis (GC 2691),Enterococcus sp.; Enterococcus faecalis (GC 2691),2 µg/mL
same,MIC Enterococcus faecalis (GC 3059),Enterococcus sp.; Enterococcus faecalis (GC 3059),1 µg/mL
same,MIC Enterococcus faecalis (GC 4552),Enterococcus sp.; Enterococcus faecalis (GC 4552),2 µg/mL
same,MIC Enterococcus faecalis (GC 4553),Enterococcus sp.; Enterococcus faecalis (GC 4553),2 µg/mL
same,MIC Enterococcus faecalis (GC 4554),Enterococcus sp.; Enterococcus faecalis (GC 4554),2 µg/mL
same,MIC Enterococcus faecalis (GC 6189),Enterococcus sp.; Enterococcus faecalis (GC 6189),1 µg/mL
same,MIC Enterococcus faecium (GC 2243),Enterococcus sp.; Enterococcus faecium (GC 2243),2 µg/mL
same,MIC Enterococcus faecium (GC 4556),Enterococcus sp.; Enterococcus faecium (GC 4556),1 µg/mL
same,MIC Enterococcus faecium (GC 4557),Enterococcus sp.; Enterococcus faecium (GC 4557),2 µg/mL
same,MIC Enterococcus avium (GC 4558),Enterococcus sp.; [1],2 µg/mL
same,MIC Enterococcus faecalis (ATCC 29212),Enterococcus sp.; [1],1 µg/mL
same,MIC Enterococcus faecalis (GC 2242),Enterococcus sp.; [1],2 µg/mL
same,MIC Enterococcus faecalis (GC 2691),Enterococcus sp.; [1],2 µg/mL
same,MIC Enterococcus faecalis (GC 3059),Enterococcus sp.; [1],1 µg/mL
same,MIC Enterococcus faecalis (GC 4552),Enterococcus sp.; [1],2 µg/mL
same,MIC Enterococcus faecalis (GC 4553),Enterococcus sp.; [1],2 µg/mL
same,MIC Enterococcus faecalis (GC 4554),Enterococcus sp.; [1],2 µg/mL
same,MIC Enterococcus faecalis (GC 6189),Enterococcus sp.; [1],1 µg/mL
same,MIC Enterococcus faecium (GC 2243),Enterococcus sp.; [1],2 µg/mL
same,MIC Enterococcus faecium (GC 4556),Enterococcus sp.; [1],1 µg/mL
same,MIC Enterococcus faecium (GC 4557),Enterococcus sp.; [1],2 µg/mL
same,MIC Escherichia coli (ATCC 25922),Escherichia coli; Escherichia coli (ATCC 25922),32 µg/mL
same,MIC Escherichia coli (GC 4559),Escherichia coli; Escherichia coli (GC 4559),32 µg/mL
same,MIC Escherichia coli (GC 4560),Escherichia coli; Escherichia coli (GC 4560),1 µg/mL

# Reference: US8247211B2, “Glycopeptide antibiotics” (American Cyanamid Company, priority 2001, dated 2012)
